Source: the NIST ThermoML archive (doi:10.1021/je800921n)

How the values were obtained:
[1] = Molar enthalpy of transition or fusion; settings: Crystal; Differential scanning calorimeter
[2] = Crystal; Differential scanning calorimeter

Molar enthalpy of transition or fusion [1]: 8.44 kcal/mol
Normal melting temperature [2]: 102.5 °C
Structure (SMILES): O=C(O)CCCCCCCC(=O)O [1,9-nonanedioic acid]
